Numbers after ± are expanded uncertainties.
Test: not given
Details: 318.15 K; 101.33 kPa; Liquid; Vibrating tube method

mass density [kg/m3]	SMILES
962.29 ± 1	CCCC[N+]1(C)CCCC1.N#C[B-](C#N)(C#N)C#N [1-butyl-1-methylpyrrolidinium tetracyanoborate]

Same assay, conditions: 328.15 K; 101.33 kPa; Liquid; Vibrating tube method

mass density [kg/m3]	SMILES
955.61 ± 1	CCCC[N+]1(C)CCCC1.N#C[B-](C#N)(C#N)C#N [1-butyl-1-methylpyrrolidinium tetracyanoborate]

Same assay, conditions: 338.15 K; 101.33 kPa; Liquid; Vibrating tube method

mass density [kg/m3]	SMILES
949 ± 1	CCCC[N+]1(C)CCCC1.N#C[B-](C#N)(C#N)C#N [1-butyl-1-methylpyrrolidinium tetracyanoborate]

Same assay, conditions: 348.15 K; 101.33 kPa; Liquid; Vibrating tube method

mass density [kg/m3]	SMILES
942.32 ± 1	CCCC[N+]1(C)CCCC1.N#C[B-](C#N)(C#N)C#N [1-butyl-1-methylpyrrolidinium tetracyanoborate]

Same assay, conditions: 358.15 K; 101.33 kPa; Liquid; Vibrating tube method

mass density [kg/m3]	SMILES
935.59 ± 1	CCCC[N+]1(C)CCCC1.N#C[B-](C#N)(C#N)C#N [1-butyl-1-methylpyrrolidinium tetracyanoborate]

Same assay, conditions: 368.15 K; 101.33 kPa; Liquid; Vibrating tube method

mass density [kg/m3]	SMILES
928.86 ± 1	CCCC[N+]1(C)CCCC1.N#C[B-](C#N)(C#N)C#N [1-butyl-1-methylpyrrolidinium tetracyanoborate]

Same assay, conditions: Crystal; DTA

Normal melting temperature [°C]	SMILES
17.30 ± 0.39	CCCC[N+]1(C)CCCC1.N#C[B-](C#N)(C#N)C#N [1-butyl-1-methylpyrrolidinium tetracyanoborate]

Test: Molar enthalpy of transition or fusion
Details: Crystal; DSC

Molar enthalpy of transition or fusion [kcal/mol]	SMILES
8.51 ± 0.184	CCCC[N+]1(C)CCCC1.N#C[B-](C#N)(C#N)C#N [1-butyl-1-methylpyrrolidinium tetracyanoborate]

Test: activity coefficient (dimensionless); of the first substance listed, at infinite dilution; xn = mol fraction of the nth substance listed
Details: 318.15 K; 101 kPa; Liquid; Chromatography; x1 = 0

SMILES	activity coefficient
CCCCCCCC [octane] + CCCC[N+]1(C)CCCC1.N#C[B-](C#N)(C#N)C#N	32.6 ± 2.2
CCCC(C)=O [pentan-2-one] + CCCC[N+]1(C)CCCC1.N#C[B-](C#N)(C#N)C#N	0.692 ± 0.047
CCC(=O)CC [pentan-3-one] + CCCC[N+]1(C)CCCC1.N#C[B-](C#N)(C#N)C#N	0.65 ± 0.044
Cc1ccccc1 [toluene] + CCCC[N+]1(C)CCCC1.N#C[B-](C#N)(C#N)C#N	1.09 ± 0.07

Continued, values first:

activity coefficient	SMILES
12.1 ± 0.8	CCCCC [pentane] + CCCC[N+]1(C)CCCC1.N#C[B-](C#N)(C#N)C#N
1.5 ± 0.1	CCCO [propan-1-ol] + CCCC[N+]1(C)CCCC1.N#C[B-](C#N)(C#N)C#N
0.61 ± 0.043	C1CCOC1 [tetrahydrofuran] + CCCC[N+]1(C)CCCC1.N#C[B-](C#N)(C#N)C#N
0.659 ± 0.045	c1ccsc1 [thiophene] + CCCC[N+]1(C)CCCC1.N#C[B-](C#N)(C#N)C#N
2.15 ± 0.15	O [water] + CCCC[N+]1(C)CCCC1.N#C[B-](C#N)(C#N)C#N

Same assay, conditions: 328.15 K; 101 kPa; Liquid; Chromatography; x1 = 0

SMILES	activity coefficient
CCCCCCCC [octane] + CCCC[N+]1(C)CCCC1.N#C[B-](C#N)(C#N)C#N	30.2 ± 2.1
CCCC(C)=O [pentan-2-one] + CCCC[N+]1(C)CCCC1.N#C[B-](C#N)(C#N)C#N	0.701 ± 0.047
CCC(=O)CC [pentan-3-one] + CCCC[N+]1(C)CCCC1.N#C[B-](C#N)(C#N)C#N	0.664 ± 0.045
Cc1ccccc1 [toluene] + CCCC[N+]1(C)CCCC1.N#C[B-](C#N)(C#N)C#N	1.11 ± 0.07

Second part, the compound after the results:

activity coefficient	SMILES
11.2 ± 0.8	CCCCC [pentane] + CCCC[N+]1(C)CCCC1.N#C[B-](C#N)(C#N)C#N
1.36 ± 0.09	CCCO [propan-1-ol] + CCCC[N+]1(C)CCCC1.N#C[B-](C#N)(C#N)C#N
0.611 ± 0.043	C1CCOC1 [tetrahydrofuran] + CCCC[N+]1(C)CCCC1.N#C[B-](C#N)(C#N)C#N
0.663 ± 0.045	c1ccsc1 [thiophene] + CCCC[N+]1(C)CCCC1.N#C[B-](C#N)(C#N)C#N
1.87 ± 0.13	O [water] + CCCC[N+]1(C)CCCC1.N#C[B-](C#N)(C#N)C#N

Same assay, conditions: 338.15 K; 101 kPa; Liquid; Chromatography; x1 = 0

SMILES	activity coefficient
CCCCCCCC [octane] + CCCC[N+]1(C)CCCC1.N#C[B-](C#N)(C#N)C#N	27.5 ± 1.9
CCCC(C)=O [pentan-2-one] + CCCC[N+]1(C)CCCC1.N#C[B-](C#N)(C#N)C#N	0.721 ± 0.048
CCC(=O)CC [pentan-3-one] + CCCC[N+]1(C)CCCC1.N#C[B-](C#N)(C#N)C#N	0.688 ± 0.046
Cc1ccccc1 [toluene] + CCCC[N+]1(C)CCCC1.N#C[B-](C#N)(C#N)C#N	1.14 ± 0.07

More lines, now with the values ahead:

activity coefficient	SMILES
10.5 ± 0.7	CCCCC [pentane] + CCCC[N+]1(C)CCCC1.N#C[B-](C#N)(C#N)C#N
1.27 ± 0.08	CCCO [propan-1-ol] + CCCC[N+]1(C)CCCC1.N#C[B-](C#N)(C#N)C#N
0.639 ± 0.044	C1CCOC1 [tetrahydrofuran] + CCCC[N+]1(C)CCCC1.N#C[B-](C#N)(C#N)C#N
0.684 ± 0.046	c1ccsc1 [thiophene] + CCCC[N+]1(C)CCCC1.N#C[B-](C#N)(C#N)C#N
1.73 ± 0.12	O [water] + CCCC[N+]1(C)CCCC1.N#C[B-](C#N)(C#N)C#N

Same assay, conditions: 348.15 K; 101 kPa; Liquid; Chromatography; x1 = 0

SMILES	activity coefficient
CCCCCCCC [octane] + CCCC[N+]1(C)CCCC1.N#C[B-](C#N)(C#N)C#N	26.2 ± 1.8
CCCC(C)=O [pentan-2-one] + CCCC[N+]1(C)CCCC1.N#C[B-](C#N)(C#N)C#N	0.735 ± 0.049
CCC(=O)CC [pentan-3-one] + CCCC[N+]1(C)CCCC1.N#C[B-](C#N)(C#N)C#N	0.71 ± 0.047
Cc1ccccc1 [toluene] + CCCC[N+]1(C)CCCC1.N#C[B-](C#N)(C#N)C#N	1.16 ± 0.07

Further lines, results first:

activity coefficient	SMILES
10.2 ± 0.7	CCCCC [pentane] + CCCC[N+]1(C)CCCC1.N#C[B-](C#N)(C#N)C#N
1.18 ± 0.08	CCCO [propan-1-ol] + CCCC[N+]1(C)CCCC1.N#C[B-](C#N)(C#N)C#N
0.652 ± 0.045	C1CCOC1 [tetrahydrofuran] + CCCC[N+]1(C)CCCC1.N#C[B-](C#N)(C#N)C#N
0.702 ± 0.047	c1ccsc1 [thiophene] + CCCC[N+]1(C)CCCC1.N#C[B-](C#N)(C#N)C#N
1.58 ± 0.1	O [water] + CCCC[N+]1(C)CCCC1.N#C[B-](C#N)(C#N)C#N

Same assay, conditions: 358.15 K; 101 kPa; Liquid; Chromatography; x1 = 0

SMILES	activity coefficient
CCCCCCCC [octane] + CCCC[N+]1(C)CCCC1.N#C[B-](C#N)(C#N)C#N	23.8 ± 1.6
CCCC(C)=O [pentan-2-one] + CCCC[N+]1(C)CCCC1.N#C[B-](C#N)(C#N)C#N	0.738 ± 0.049
CCC(=O)CC [pentan-3-one] + CCCC[N+]1(C)CCCC1.N#C[B-](C#N)(C#N)C#N	0.719 ± 0.048
Cc1ccccc1 [toluene] + CCCC[N+]1(C)CCCC1.N#C[B-](C#N)(C#N)C#N	1.18 ± 0.08

More lines, now with the values ahead:

activity coefficient	SMILES
9.56 ± 0.65	CCCCC [pentane] + CCCC[N+]1(C)CCCC1.N#C[B-](C#N)(C#N)C#N
1.1 ± 0.07	CCCO [propan-1-ol] + CCCC[N+]1(C)CCCC1.N#C[B-](C#N)(C#N)C#N
0.661 ± 0.045	C1CCOC1 [tetrahydrofuran] + CCCC[N+]1(C)CCCC1.N#C[B-](C#N)(C#N)C#N
0.711 ± 0.047	c1ccsc1 [thiophene] + CCCC[N+]1(C)CCCC1.N#C[B-](C#N)(C#N)C#N
1.39 ± 0.09	O [water] + CCCC[N+]1(C)CCCC1.N#C[B-](C#N)(C#N)C#N

Same assay, conditions: 368.15 K; 101 kPa; Liquid; Chromatography; x1 = 0

SMILES	activity coefficient
CCCCCCCC [octane] + CCCC[N+]1(C)CCCC1.N#C[B-](C#N)(C#N)C#N	22.5 ± 1.5
CCCC(C)=O [pentan-2-one] + CCCC[N+]1(C)CCCC1.N#C[B-](C#N)(C#N)C#N	0.755 ± 0.05
CCC(=O)CC [pentan-3-one] + CCCC[N+]1(C)CCCC1.N#C[B-](C#N)(C#N)C#N	0.732 ± 0.048
Cc1ccccc1 [toluene] + CCCC[N+]1(C)CCCC1.N#C[B-](C#N)(C#N)C#N	1.2 ± 0.08

The remaining lines, values ahead:

activity coefficient	SMILES
9.09 ± 0.62	CCCCC [pentane] + CCCC[N+]1(C)CCCC1.N#C[B-](C#N)(C#N)C#N
1.04 ± 0.07	CCCO [propan-1-ol] + CCCC[N+]1(C)CCCC1.N#C[B-](C#N)(C#N)C#N
0.679 ± 0.046	C1CCOC1 [tetrahydrofuran] + CCCC[N+]1(C)CCCC1.N#C[B-](C#N)(C#N)C#N
0.734 ± 0.049	c1ccsc1 [thiophene] + CCCC[N+]1(C)CCCC1.N#C[B-](C#N)(C#N)C#N
1.28 ± 0.08	O [water] + CCCC[N+]1(C)CCCC1.N#C[B-](C#N)(C#N)C#N
